Read-outs that look alike come from different tables or passages of the source.
Experiments:
[1] = test system: Huntingtin (HTT) transcripts; experiment: Quantitative splicing assay (HTT), qPCR; assay type: cell-based; conditions: Homo sapiens, GM04724 (CAG 70/20) Huntington's disease patient lymphoblasts, 24 h
Summary of the method: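 Read-out is TaqMan qPCR on cDNA, quantifying inclusion of a cryptic exon within HTT intron 49. Cells were Huntington's patient lymphoblasts GM04724 (CAG 70/20), treated for 24 h at 0.15 nM–2.5 uM compound in 0.1% DMSO.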

mHTT protein = mHTT protein assay (2B7-MW1, Mesoscale Discovery); assay type: cell-based, human; conditions: GM04724 (CAG 70/20) Huntington's disease patient lymphoblast cells, 48 hours, 2B7-MW1 MSD; read-out: HTT Potency - Protein EC50 mHTT (average)
Summary of the method: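 mHTT levels were read with the 2B7-MW1 antibody pair (N17 and polyQ epitopes) on MSD after 48 h dosing, 10 μM–0.6 nM. Cells were GM04724 HD lymphoblasts (CAG 70/20). A replica plate was read by CTG for cell viability.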

[2] = test system: MDR1-MDCK cell monolayers; experiment: MDCK-MDR1 permeability assay (BBB penetration potential); assay type: in vitro ADME; conditions: dog, MDCK-MDR1, 120 min, 5 μM, pH 7.4
Method: (§1) Each determination is performed in duplicate. […] Analytical conditions are outlined below.

MDR1 = experiment: as above; assay type: in vitro ADME; conditions: dog; for efflux ratio at 120 min, 5 μM: MDCK-MDR1, pH 7.4, MDCK-MDR1: Efflux; for Papp A→B at 120 min, 5 μM: MDCK-MDR1, pH 7.4, MDCK-MDR1: Papp A-B; for Papp B→A at 120 min, 5 μM: MDCK-MDR1, pH 7.4, MDCK-MDR1: Papp B-A
Method: as §1

[3] = qPCR HTTex49_50, read-out: HTT Potency - Splicing: E49-50 EC50 (average)
[4] = qPCR cryptic exon 49b inclusion, read-out: HTT Potency - Splicing: E49b EC50 (average)

Row | Structure (SMILES) | EC50 [1, 3] [nM] | EC50 [1, 4] [nM] | EC50 (mHTT protein) [nM] | MDCK-MDR1: Efflux [2] | MDCK-MDR1: Papp A-B [2] | MDCK-MDR1: Papp B-A [2] | efflux ratio at 120 min, 5 μM (MDR1) | Papp A→B at 120 min, 5 μM (MDR1) [×10⁻⁶ cm/s] | Papp B→A at 120 min, 5 μM (MDR1) [×10⁻⁶ cm/s] | MDCK-MDR1: % Recov A-B [2] [%] | MDCK-MDR1: % Recov B-A [2] [%]
1 | Cn1ccc2cc(O)c(-c3ccc(O[C@H]4C[C@@H]5CCC[C@@H](N5)[C@H]4F)nn3)cc2c1=O (single isomer, unassigned) [128-ENT1] | 51 to 100 | 51 to 100 | 16 to 50 | 11 | 5.78 10^−6, cm/s | 65.2 10^−6, cm/s | 7 | 5.27 | 38.6 |  | 
2 | Cn1ccc2cc(-c3ccc(O[C@@H]4C[C@@]5(C)CCC[C@](C)(N5)[C@@H]4F)nn3)c(O)cc2c1=O (single isomer, unassigned) [156-ENT1] | 16 to 50 | 16 to 50 | 0.01 to 15 |  |  |  | 11 | 4.79 | 52.6 | 86 | 90
3 | Cc1ccc(-c2ccc(-c3ccc(O[C@H]4C[C@@H]5CCC[C@@H](N5)[C@H]4F)nn3)c(O)c2)nn1 (single isomer, unassigned) [75-ENT2] | 501 to 10000 | 501 to 10000 | 501 to 10000 |  |  |  | 10 | 3.96 | 39.7 | 82 | 78
4 | O=c1cc(-c2ccc(-c3ccc(O[C@H]4C[C@@H]5CCC[C@@H](N5)[C@H]4F)nn3)c(O)c2)cc[nH]1 (single isomer, unassigned) [53-ENT2] | 101 to 500 | 101 to 500 | 101 to 500 |  |  |  | 106 | 0.22 | 23.2 | 104 | 103
5 | Cn1cc(-c2ccc(-c3ccc(O[C@@H]4C[C@@]5(C)CCC[C@](C)(N5)[C@@H]4F)nn3)c(O)c2)cn1 (single isomer, unassigned) [154-ENT2] | 16 to 50 | 0.01 to 15 | 16 to 50 |  |  |  | 3 | 6.92 | 22 | 81 | 92
6 | Cn1cc(-c2ccc(-c3ccc(O[C@H]4C[C@@H]5CC[C@@H](N5)[C@H]4F)nn3)c(O)c2)cn1 (single isomer, unassigned) [60-ENT2] | 16 to 50 | 16 to 50 | 51 to 100 |  |  |  | 4 | 8.12 | 31.3 | 67 | 78
7 | Oc1cc(-c2nnco2)ccc1-c1ccc(O[C@@H]2C[C@H]3CCC[C@H](N3)[C@@H]2F)nn1 (single isomer, unassigned) [117-ENT1] | 101 to 500 | 101 to 500 | 51 to 100 |  |  |  | 6 | 7.92 | 47.5 | 85 | 106
8 | Oc1cc(-c2nnco2)ccc1-c1ccc(O[C@H]2C[C@@H]3CCC[C@@H](N3)[C@H]2F)nn1 (single isomer, unassigned) [117-ENT2] | 101 to 500 | 101 to 500 | 16 to 50 |  |  |  | 5 | 7.22 | 37.9 | 78 | 93
9 | Oc1cc(-c2cn[nH]c2)ccc1-c1ccc(O[C@@H]2C[C@H]3CC[C@H](N3)[C@H]2F)nn1 (single isomer, unassigned) [43-ENT2] | 16 to 50 | 16 to 50 | 0.01 to 15 |  |  |  | 9 | 6.27 | 58.7 | 83 | 84

From patent publication US12522597B2, “Methods and compositions for modulating splicing” (Skyhawk Therapeutics, Inc., priority 2019, dated 2026)
